Several values for one entry are separate records, joined by “and”; a condition that tells them apart may be missing. Equal values may be shown once. Blank lines part the entries; values can stand above or below the compound they belong to.
Test system: 379773-124-R-J2-PDC spheroid viability
Assay: Anticancer human tumor 379773-124-R-J2-PDC patient-derived endometrial carcinoma cell line growth inhibition [POLQ]
Settings: spheroids with HUVEC and MSC; for viability, T/C: stronger effect = lower value
Method: Multicellular complex tumor spheroid response to Polymerase (POL) inhibitors (novobiocin, ART-558, RP6685) in combination with a variety of drugs and investigational agents in selected tumor cell lines
The POL inhibitors (novobiocin, ART-558, and RP6685) were evaluated both individually and in combination with standard of care and investigational anticancer small molecules within a complex spheroid model of solid tumors. . Complex spheroids include a stromal component modeled by human endothelial cells (HUVEC) and fibroblasts modeled by human mesenchymal stem cells (MSCs). The concentration ranges selected for each drug and investigational agent were based upon clinically achievable concentrations if the clinical Cmax of the agent was known.
Compounds. The drugs and investigational agents: novobiocin (NSC847541), ART-558 (NSC835418), RP-6685 (NSC848927), peposertib (NSC802822), ceralasertib (NSC780249), elimusertib (NSC800525), camonsertib (NSC841442), AZD-1390 (NSC803789), olaparib (NSC753686), talazoparib (NSC767125), rucaparib (NSC756644), sotorasib (NSC818433), MRTX-1133 (NSC836407), SN-38 (NSC673596), topotecan (NSC609699), epotoside (NSC141540), doxorubicin (NSC123127), gemcitabine (NSC613327), 5-fluorouracil (NSC19893), paclitaxel (NSC125973), vemurafenib (NSC761431), MSA-2 (NSC828583), SN-011 (NSC837082), adavosertib (NSC754352), prexasertib (NSC758257), carboplatin (NSC241240) and oxaliplatin (NSC266046), were obtained from the National Cancer Institute (NCI) Developmental Therapeutics Program Chemical Repository (21). The FDA-approved anticancer drug set is available from the Developmental Therapeutics Program at https://dtp.cancer.gov/organization/dscb/obtaining/. […] The stock solutions were prepared in dimethyl sulfoxide (DMSO, Sigma-Aldrich, St. Louis, MO, cat. D2650), except for the platinum compounds which were prepared in saline (Quality Biological, Gaithersburg, MD, cat. 114-055-101), at 800-fold the tested concentration and stored at -70 degrees C prior to their use. All drugs and investigational agents were tested over a range starting from a high concentration at or near the clinical Cmax and decreasing in half-log increments. If the clinical Cmax for an agent had not been determined, the highest concentration tested was 10 microM, except for SN-38, which was tested at a high concentration of 1 microM.
Cell Culture. All cells were maintained in an incubator at 37 degrees C and 5% CO2 with 95% humidity. The PDC lines were cultured according to standard operating procedures established by the NCI PDMR (https://pdmr.cancer.gov). Table 3 of the manuscript, lists the cell lines along with the number of the three cell types plated to form the mct-spheroids and media for tumor cell growth. After thawing, all PDC lines, except 997537-175-T-J1-PDC and 415267-285-R-J2-PDC, were cultured in Matrigel-coated flasks prepared with a working solution of 1X Ham's F-12 nutrient mix, without supplementation (Thermo Fisher Scientific, cat. 11765054), 100 U/mL penicillin-streptomycin (Thermo Fisher Scientific, cat. 15140122), and 2.5% Matrigel (Corning Inc., Corning, NY, cat. 354248) for the first three passages. The two PDC lines 997537-175-T-J1-PDC and 415267-285-R-J2-PDC were cultured on uncoated flasks. The 857933-349-R-J2-PDC line was cultured in 6C/Colon 1B media containing advanced DMEM/F-12 (Thermo Fisher Scientific, cat. 12634028), 10 mM HEPES (Thermo Fisher Scientific, cat. 15630080), 1X GlutaMAX supplement (Thermo Fisher Scientific, cat. 35050061), 0.1 mg/mL primocin (InvivoGen, San Diego, CA, cat. ant-pm-2), 10% defined fetal bovine serum, heat inactivated (HyClone Laboratories Inc., Logan, UT, cat. SH30070.03HI), 50% L-WRN conditioned media (ATCC, cat. CRL-3276), 1.25 mM N-Acetyl-L-cysteine (Sigma-Aldrich, cat. A9165), 10 mM nicotinamide (Sigma-Aldrich, cat. N0636), 1X B-27 supplement (Thermo Fisher Scientific, cat. 17504044), 1X N-2 supplement (Thermo Fisher Scientific, cat. […]

[1] = curve of first compound, second compound 0.0316 µM
[2] = curve of first compound, second compound 0.1 µM
[3] = curve of first compound, second compound 0.316 µM
[4] = curve of first compound, second compound 1 µM
[5] = curve of first compound, second compound 3.16 µM
[6] = curve of first compound, second compound 10 µM
[7] = second compound 0.0316 µM, first compound 0.0316 µM
[8] = second compound 0.0316 µM, first compound 0.1 µM
[9] = second compound 0.0316 µM, first compound 0.316 µM
[10] = second compound 0.0316 µM, first compound 1 µM
[11] = second compound 0.0316 µM, first compound 3.16 µM
[12] = second compound 0.0316 µM, first compound 10 µM
[13] = second compound 0.1 µM, first compound 0.0316 µM
[14] = second compound 0.1 µM, first compound 0.1 µM
[15] = second compound 0.1 µM, first compound 0.316 µM
[16] = second compound 0.1 µM, first compound 1 µM
[17] = second compound 0.1 µM, first compound 3.16 µM
[18] = second compound 0.1 µM, first compound 10 µM
[19] = second compound 0.316 µM, first compound 0.0316 µM
[20] = second compound 0.316 µM, first compound 0.1 µM
[21] = second compound 0.316 µM, first compound 0.316 µM
[22] = second compound 0.316 µM, first compound 1 µM
[23] = second compound 0.316 µM, first compound 3.16 µM
[24] = second compound 0.316 µM, first compound 10 µM
[25] = second compound 1 µM, first compound 0.0316 µM
[26] = second compound 1 µM, first compound 0.1 µM
[27] = second compound 1 µM, first compound 0.316 µM
[28] = second compound 1 µM, first compound 1 µM
[29] = second compound 1 µM, first compound 3.16 µM
[30] = second compound 1 µM, first compound 10 µM
[31] = second compound 3.16 µM, first compound 0.0316 µM
[32] = second compound 3.16 µM, first compound 0.1 µM
[33] = second compound 3.16 µM, first compound 0.316 µM
[34] = second compound 3.16 µM, first compound 1 µM
[35] = second compound 3.16 µM, first compound 3.16 µM
[36] = second compound 3.16 µM, first compound 10 µM
[37] = second compound 10 µM, first compound 0.0316 µM
[38] = second compound 10 µM, first compound 0.1 µM
[39] = second compound 10 µM, first compound 0.316 µM
[40] = second compound 10 µM, first compound 1 µM
[41] = second compound 10 µM, first compound 3.16 µM
[42] = second compound 10 µM, first compound 10 µM
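Note: spheroids exposed to drugs for seven days before readout.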
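Throughout, for viability, T/C: percent viability relative to DMSO vehicle control taken as 100%.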

SMILES: COc1cc(C2c3cc4c(cc3C(OC3OC5COC(C)OC5C(O)C3O)C3COC(=O)C23)OCO4)cc(OC)c1O (stereo not drawn)
viability, T/C (compound 0.0316 µM): 84.9% and 99% and 87%
viability, T/C (compound 0.1 µM): 86.8% and 96.4% and 75.6%
viability, T/C (compound 0.316 µM): 89.5% and 90% and 75.2%
viability, T/C (compound 1 µM): 64.8% and 72.1% and 65%
viability, T/C (compound 3.16 µM): 14.7% and 19.1% and 14.3%
viability, T/C (compound 10 µM): 10.1% (2×) and 14.7%
IC50 (curve of compound): 1.4 µM and 1.62 µM

SMILES: O=C(c1cc(Cc2n[nH]c(=O)c3ccccc23)ccc1F)N1CCN(C(=O)C2CC2)CC1 + Nc1ccc(C#CCN(C(=O)Cc2ncc(C(F)(F)F)cc2C(F)(F)F)c2ccc(F)cc2)nn1
IC50 [1]: 9.3 µM
IC50 [2]: 8.88 µM
IC50 [3]: > 10 µM
IC50 [4]: 9.76 µM
IC50 [5]: > 10 µM
IC50 [6]: 9.98 µM
viability, T/C [7]: 87.2%
viability, T/C [8]: 93.1%
viability, T/C [9]: 82.5%
viability, T/C [10]: 89.9%
viability, T/C [11]: 87.8%
viability, T/C [12]: 47.5%
viability, T/C [13]: 85.1%
viability, T/C [14]: 94.2%
viability, T/C [15]: 94%
viability, T/C [16]: 83%
viability, T/C [17]: 91.1%
viability, T/C [18]: 45.5%
viability, T/C [19]: 89.8%
viability, T/C [20]: 90%
viability, T/C [21]: 92.7%
viability, T/C [22]: 91.3%
viability, T/C [23]: 82%
viability, T/C [24]: 50.6%
viability, T/C [25]: 95.1%
viability, T/C [26]: 100%
viability, T/C [27]: 94%
viability, T/C [28]: 85.2%
viability, T/C [29]: 83.1%
viability, T/C [30]: 48.4%
viability, T/C [31]: 88.1%
viability, T/C [32]: 88.7%
viability, T/C [33]: 84.7%
viability, T/C [34]: 93.2%
viability, T/C [35]: 89.8%
viability, T/C [36]: 52.2%
viability, T/C [37]: 87.8%
viability, T/C [38]: 89.2%
viability, T/C [39]: 89.3%
viability, T/C [40]: 96.5%
viability, T/C [41]: 84.5%
viability, T/C [42]: 49.5%

SMILES: CC1COCCN1c1cc(-c2ccnn2C)c2ccnc(-c3ccn[nH]3)c2n1 (stereo not drawn)
viability, T/C (compound 0.0316 µM): 75.5% and 78.8% and 88.4%
viability, T/C (compound 0.1 µM): 53.1% and 47.6% and 54.7%
viability, T/C (compound 0.316 µM): 11.6% and 8.88% and 12.7%
viability, T/C (compound 1 µM): 8.44% and 8.27% and 10.5%
viability, T/C (compound 3.16 µM): 10.4% and 10.8% and 12.3%
viability, T/C (compound 10 µM): 5.02% and 6.19% and 8.08%
IC50 (curve of compound): 0.109 µM and 0.0915 µM and 0.114 µM

SMILES: C#Cc1c(F)ccc2cc(O)cc(-c3ncc4c(N5CC6CCC(C5)N6)nc(OCC56CCCN5CC(F)C6)nc4c3F)c12 (stereo not drawn) + Nc1ccc(C#CCN(C(=O)Cc2ncc(C(F)(F)F)cc2C(F)(F)F)c2ccc(F)cc2)nn1
IC50 [1]: > 10 µM
IC50 [2]: > 10 µM
IC50 [3]: > 10 µM
IC50 [4]: > 10 µM
IC50 [5]: > 10 µM
IC50 [6]: > 10 µM
viability, T/C [7]: 92.3%
viability, T/C [8]: 91.9%
viability, T/C [9]: 95.5%
viability, T/C [10]: 89.1%
viability, T/C [11]: 95.8%
viability, T/C [12]: 101%
viability, T/C [13]: 92.7%
viability, T/C [14]: 110%
viability, T/C [15]: 88.6%
viability, T/C [16]: 98%
viability, T/C [17]: 103%
viability, T/C [18]: 107%
viability, T/C [19]: 91.3%
viability, T/C [20]: 89.3%
viability, T/C [21]: 92.1%
viability, T/C [22]: 94.3%
viability, T/C [23]: 104%
viability, T/C [24]: 111%
viability, T/C [25]: 84.5%
viability, T/C [26]: 97.6%
viability, T/C [27]: 99.9%
viability, T/C [28]: 86.1%
viability, T/C [29]: 106%
viability, T/C [30]: 103%
viability, T/C [31]: 99.3%
viability, T/C [32]: 88.7%
viability, T/C [33]: 105%
viability, T/C [34]: 103%
viability, T/C [35]: 103%
viability, T/C [36]: 104%
viability, T/C [37]: 88.9%
viability, T/C [38]: 88.6%
viability, T/C [39]: 98.5%
viability, T/C [40]: 85.6%
viability, T/C [41]: 91.3%
viability, T/C [42]: 102%

SMILES: CCCS(=O)(=O)Nc1ccc(F)c(C(=O)c2c[nH]c3ncc(-c4ccc(Cl)cc4)cc23)c1F + COC1C(OC(N)=O)C(O)C(Oc2ccc3c(O)c(NC(=O)c4ccc(O)c(CC=C(C)C)c4)c(=O)oc3c2C)OC1(C)C
IC50 [1]: > 10 µM
IC50 [2]: > 10 µM
IC50 [3]: > 10 µM
IC50 [4]: > 10 µM
IC50 [5]: > 10 µM
IC50 [6]: > 10 µM
viability, T/C [7]: 94.2%
viability, T/C [8]: 86.8%
viability, T/C [9]: 83.8%
viability, T/C [10]: 87.9%
viability, T/C [11]: 70.5%
viability, T/C [12]: 57.9%
viability, T/C [13]: 86.2%
viability, T/C [14]: 87.7%
viability, T/C [15]: 88.3%
viability, T/C [16]: 80.3%
viability, T/C [17]: 73.1%
viability, T/C [18]: 55.4%
viability, T/C [19]: 77.1%
viability, T/C [20]: 75.6%
viability, T/C [21]: 76.8%
viability, T/C [22]: 77.6%
viability, T/C [23]: 66.2%
viability, T/C [24]: 52.9%
viability, T/C [25]: 87.6%
viability, T/C [26]: 84.4%
viability, T/C [27]: 81.8%
viability, T/C [28]: 77.8%
viability, T/C [29]: 73.6%
viability, T/C [30]: 58.9%
viability, T/C [31]: 73.5%
viability, T/C [32]: 76.2%
viability, T/C [33]: 75.8%
viability, T/C [34]: 76.4%
viability, T/C [35]: 75.7%
viability, T/C [36]: 61.3%
viability, T/C [37]: 78.5%
viability, T/C [38]: 85.4%
viability, T/C [39]: 79.8%
viability, T/C [40]: 66.5%
viability, T/C [41]: 75.9%
viability, T/C [42]: 60.2%

IC50 (compound alone, run of 10/31/2023): > 10 µM
IC50 (compound alone, run of 11/06/2023): > 10 µM
SMILES: Cc1cccc(N(C)C(=O)C2C(O)CCN2c2nc(C)cc(C(F)(F)F)c2C#N)c1 (stereo not drawn)
viability, T/C (compound 0.0316 µM): 89.8% [middle of 13 runs]
viability, T/C (compound 0.1 µM): 90.7% [middle of 13 runs]
viability, T/C (compound 0.316 µM): 88.2% [middle of 13 runs]
viability, T/C (compound 1 µM): 88.2% [middle of 13 runs]
viability, T/C (compound 3.16 µM): 89% [middle of 13 runs]
viability, T/C (compound 10 µM): 92.7% [middle of 13 runs]
